17 compounds from PubChem BioAssay AID248 (DTP/NCI, 2004) can be followed below.

The test system of this assay is L1210 leukemia ip in BDF1 mice, survival T/C. Kind of assay: NCI In Vivo Anticancer Drug Screen. Data for tumor model L1210 Leukemia (intraperitoneal) in B6D2F1 (BDF1) mice. Conditions: endpoint: mean survival time, higher = longer survival. Summed up:
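Transplantable tumor model; survival measured in treated vs vehicle control mice. Value = treated/control.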

Setting [1] is: dose: 100.0 mg/kg/injection, schedule: Q04DX003 (ip), vehicle: saline.
The mark [2] stands for this setting: dose: 200.0 mg/kg/injection, schedule: Q01DX009 (ip), vehicle: saline.
The mark [3] stands for this setting: dose: 200.0 mg/kg/injection, schedule: Q04DX003 (ip), vehicle: saline.
Where [4] appears, read: dose: 400.0 mg/kg/injection, schedule: Q04DX003 (ip), vehicle: saline.
The mark [5] stands for this setting: dose: 100.0 mg/kg/injection, schedule: Q04DX003 (ip), vehicle: saline with Tween-80.
Setting [6] is: dose: 200.0 mg/kg/injection, schedule: Q04DX003 (ip), vehicle: saline with Tween-80.
Where [7] appears, read: dose: 100.0 mg/kg/injection, schedule: Q04DX003 (ip), vehicle: Klucel (hydroxypropylcellulose) (HPC).
[8] abbreviates: dose: 200.0 mg/kg/injection, schedule: Q04DX003 (ip), vehicle: Klucel (hydroxypropylcellulose) (HPC).
The mark [9] stands for this setting: dose: 400.0 mg/kg/injection, schedule: Q04DX003 (ip), vehicle: Klucel (hydroxypropylcellulose) (HPC).

Toxic doses and inconclusive results are not listed.

Take `CCC1(C)C(=O)N(Br)C(=O)N1Br` (configuration not stated): the T/C by setting is: (dose: 50.0 mg/kg/injection, schedule: Q01DX009 (ip), vehicle: saline) 91 % of control; (dose: 50.0 mg/kg/injection, schedule: Q04DX003 (ip), vehicle: saline) 100 % of control; (dose: 100.0 mg/kg/injection, schedule: Q01DX001 (ip), vehicle: Klucel (hydroxypropylcellulose) (HPC)) 106 % of control; (dose: 100.0 mg/kg/injection, schedule: Q01DX009 (ip), vehicle: saline) 95 % of control; under setting [1], 105 % of control; (dose: 200.0 mg/kg/injection, schedule: Q01DX001 (ip), vehicle: Klucel (hydroxypropylcellulose) (HPC)) 102 % of control. Further, the T/C by setting is: under setting [2], 95 % of control; under setting [3], 97 % of control.

Take `CNC(=O)N1CC(C)OC(C)C1` (configuration not stated): the T/C under setting [1] was 115 % of control; the T/C under setting [2] is 92 % of control; the T/C under setting [3] is 105 % of control; the T/C (dose: 400.0 mg/kg/injection, schedule: Q01DX009 (ip), vehicle: saline) is 107 % of control; the T/C under setting [4] was 101 % of control.

For the compound `CC(=O)NC(C(C)=O)C(C)=O.CC(=O)NC(C(C)=O)C(C)=O.[Cu]`, the T/C (dose: 12.0 mg/kg/injection, schedule: Q01DX001 (ip), vehicle: saline) was 90 % of control and the T/C (dose: 25.0 mg/kg/injection, schedule: Q01DX001 (ip), vehicle: saline) is 88 % of control.

Turning to `N#CCC1COc2ccccc2O1` (configuration not stated), the T/C was 92 % of control (dose: 100.0 mg/kg/injection, schedule: Q01DX001 (ip), vehicle: carboxymethylcellulose (CMC)); 97 % of control (dose: 200.0 mg/kg/injection, schedule: Q01DX001 (ip), vehicle: carboxymethylcellulose (CMC)); 100 % of control (dose: 400.0 mg/kg/injection, schedule: Q01DX001 (ip), vehicle: carboxymethylcellulose (CMC)).

With `CN(CCO)CC1COc2ccccc2O1` (configuration not stated), the T/C (dose: 50.0 mg/kg/injection, schedule: Q01DX001 (ip), vehicle: saline) was 97 % of control; the T/C (dose: 100.0 mg/kg/injection, schedule: Q01DX001 (ip), vehicle: saline) is 105 % of control; the T/C (dose: 200.0 mg/kg/injection, schedule: Q01DX001 (ip), vehicle: saline) is 88 % of control.

`CCC1(C)NC(C(=O)O)CS1` (configuration not stated): the T/C by setting is: under setting [1], 105 % of control; under setting [3], 107 % of control; under setting [4], 100 % of control.

For the compound `COC1OC(CN=[N+]=[N-])C(N=[N+]=[N-])C(OS(C)(=O)=O)C1OS(C)(=O)=O` (configuration not stated), the T/C under setting [5] was 92 % of control; the T/C under setting [6] was 90 % of control; the T/C (dose: 400.0 mg/kg/injection, schedule: Q04DX003 (ip), vehicle: saline with Tween-80) was 94 % of control.

As for `COC(=O)C(C)NC(=O)C1CSC(C)(C)N1C=O` (configuration not stated), the T/C by setting is: under setting [1], 101 % of control; under setting [3], 95 % of control; under setting [4], 95 % of control.

`O=c1[nH][nH]c(Cc2ccccc2)c1-c1ccccc1`: the T/C was 102 % of control under setting [7], 98 % of control under setting [8] and 101 % of control under setting [9].

With `O=C(Nc1ccc(C2=NCCCN2)cc1)c1ccc(C(=O)Nc2ccc(C3=NCCCN3)cc2)nc1`, the T/C reads like this: (dose: 1.5 mg/kg/injection, schedule: Q01DX Z (ip), vehicle: water) 122 % of control; (dose: 3.0 mg/kg/injection, schedule: Q01DX Z (ip), vehicle: water) 114 % of control; (dose: 3.0 mg/kg/injection, schedule: Q01DX Z (oral), vehicle: water) 97 % of control; (dose: 6.0 mg/kg/injection, schedule: Q01DX Z (ip), vehicle: water) 172 % of control; (dose: 6.25 mg/kg/injection, schedule: Q01DX Z (oral), vehicle: water) 95 % of control; (dose: 7.5 mg/kg/injection, schedule: Q01DX001 (ip), vehicle: water) 118 % of control. Moreover, the T/C (dose: 12.5 mg/kg/injection, schedule: Q01DX Z (oral), vehicle: water) was 89 % of control and the T/C (dose: 25.0 mg/kg/injection, schedule: Q01DX Z (oral), vehicle: water) is 91 % of control.

Regarding `Cn1c(=O)c2[nH]cnc2n(C)c1=O` (tested in a mixture with another compound), the T/C was 97 % of control under setting [5] and 96 % of control under setting [6].

As to `Cc1cccc[n+]1CC(=O)c1ccc(-c2ccc(C(=O)C[n+]3ccccc3)cc2)cc1`, the T/C is, setting by setting: (dose: 0.04 mg/kg/injection, schedule: Q04DX003 (ip), vehicle: saline) 102 % of control; (dose: 0.08 mg/kg/injection, schedule: Q04DX003 (ip), vehicle: saline) 104 % of control; (dose: 0.15 mg/kg/injection, schedule: Q04DX003 (ip), vehicle: saline) 97 % of control.

With `C1=Cc2ccccc2/C1=C/c1cccc(/C=C2\C=Cc3ccccc32)c1`, the T/C was 101 % of control (dose: 6.25 mg/kg/injection, schedule: Q01DX009 (ip), vehicle: saline with Tween-80); 97 % of control (dose: 12.5 mg/kg/injection, schedule: Q01DX009 (ip), vehicle: saline with Tween-80); 100 % of control (dose: 12.5 mg/kg/injection, schedule: Q04DX003 (ip), vehicle: saline with Tween-80); 97 % of control (dose: 25.0 mg/kg/injection, schedule: Q01DX009 (ip), vehicle: saline with Tween-80); 95 % of control (dose: 25.0 mg/kg/injection, schedule: Q04DX003 (ip), vehicle: saline with Tween-80).

As to `O=C(CCCNC(=O)OCc1ccccc1)NCCCCCCCCCCNC(=O)CCCNC(=O)OCc1ccccc1`, the T/C (dose: 10.0 mg/kg/injection, schedule: Q01DX012 (ip), vehicle: saline) is 102 % of control; the T/C (dose: 30.0 mg/kg/injection, schedule: Q01DX012 (ip), vehicle: saline) is 96 % of control; the T/C (dose: 100.0 mg/kg/injection, schedule: Q01DX012 (ip), vehicle: saline) is 90 % of control; the T/C (dose: 300.0 mg/kg/injection, schedule: Q01DX012 (ip), vehicle: saline) is 91 % of control.

On to `COc1ccccc1NC(=O)Nc1cc(C)ccc1C`, for which the T/C is 88 % of control (dose: 100.0 mg/kg/injection, schedule: Q01DX009 (ip), vehicle: Klucel (hydroxypropylcellulose) (HPC)); 90 % of control under setting [7]; 92 % of control (dose: 200.0 mg/kg/injection, schedule: Q01DX009 (ip), vehicle: Klucel (hydroxypropylcellulose) (HPC)); 95 % of control under setting [8]; 88 % of control (dose: 400.0 mg/kg/injection, schedule: Q01DX009 (ip), vehicle: Klucel (hydroxypropylcellulose) (HPC)); 88 % of control under setting [9].

`Nc1nc2c(ncn2-c2cccc3ccccc23)c(=O)[nH]1`: the T/C is, setting by setting: (dose: 25.0 mg/kg/injection, schedule: Q01DX001 (ip), vehicle: saline with Tween-80) 93 % of control; (dose: 50.0 mg/kg/injection, schedule: Q01DX001 (ip), vehicle: saline with Tween-80) 119 % of control; (dose: 100.0 mg/kg/injection, schedule: Q01DX001 (ip), vehicle: saline with Tween-80) 93 % of control.

Take `COC(=O)/C=C/C(Oc1ccc(C)cc1)C(=O)OC` (configuration not stated): the T/C by setting is: (dose: 75.0 mg/kg/injection, schedule: Q04DX003 (ip), vehicle: other) 98 % of control; (dose: 150.0 mg/kg/injection, schedule: Q04DX003 (ip), vehicle: other) 96 % of control; (dose: 300.0 mg/kg/injection, schedule: Q04DX003 (ip), vehicle: other) 98 % of control.
